In patent publication US8829009B2, “Substituted 2-amino-3-(sulfonyl)pyrazolo[1,5-a]pyrimidines - serotonin 5-HT6 receptor antagonists, method for use thereof” (priority 2008, dated 2014):

Tests used:
5-HT6 receptor [1] = molecular target: T1, 5-HT6 receptor (Homo sapiens (Human), UniProt P50406); experiment: Functional assay: inhibition of serotonin-induced intracellular cAMP in HEK 293 cells expressing 5-HT6 receptor (LANCE cAMP); type: cell-based; settings: for inhibition at 10 µM: HEK293, read-out: % inhibition of 5-HT6 receptors, 10 μM solutions of compounds; for IC50: HEK 293 cells expressing 5-HT6 receptor, read-out: IC50 inhibition of serotonin 5-HT6 receptors in the setting of functional assay (serotonin-stimulated intracellular cAMP production)
Method: Determination of antagonistic activity of compounds of general formula 1 towards 5-HT6 receptors. Compounds of general formula 1 were tested for their ability to prevent 5-HT6 receptor activation by serotonin. HEK 293 cells (cells of human embryo's kidney) with artificially expressed 5-HT6 receptor, activation of which by serotonin leads to increasing the concentration of intracellular cAMP were used. The content of intracellular cAMP was determined using reagent kit LANCE cAMP (PerkinElmer) according to the method described by the manufacturer of the kit [http://las.perkinelmer.com/content/Manuals/MAN_LANCEcAMP384KitUser.pdf].
Effectiveness of compounds was estimated by their ability to reduce the content of intracellular cAMP induced by serotonin.

[2] = test system: food consumption (appetite) in rats; experiment: Appetite control test in food-deprived rats; type: in vivo, rat; settings: Vistar rats, 16 h food deprivation, 10 mg/kg intraperitoneally 60 min before test (FIG. 2 legend: 1 mg/kg)
Method: Appetite control test. Male rats of Vistar line weighing 230-360 g were housed in standard home cages with water and food available with the exception of short periods of food deprivation (16 hs) just before the Appetite test. The Appetite test was carried out in individual cages with overhead cover made of wire in the niches of which a portion of food granules was inserted. Mass of the granules was examined every 30 minutes for 3 h. On the basis of these measurements food consumption was estimated and stated in grams of food per kilogram of body mass. Placebo and the compound 1.1(1) (dose 10 mg/kg) were injected intraperitoneally 60 minutes before the test. Each experimental group of animals consisted of 10 rats. Compound was dissolved in sterilized water. The injection volume was 10 ml/kg. Intact animals which were not undergone food deprivation, and animals after food deprivation, but injected with sterilized water, were used as control. […]

[3] = test system: prepulse inhibition of startle in mice; experiment: Prepulse inhibition of the startle response in mice (Apomorphine-induced disturbance); type: in vivo, mouse; settings: SHK mice, 1 mg/kg, 60 min before test
Method: Antipsychotic activity of compounds of the general formula 1 in “Prepulse inhibition of the startle response in mice” test. Mice of SHK line weighing about 24-30 g were used in the test. Experiments were carried out during light period of animal's diurnal. Apomorphine hydrochloride and Haloperidol were received from Sigma Chemicals Company, (USA). Apomorphine hydrochloride was dissolved in 0.1% solution of ascorbic acid prepared with sterilized water; it was administered subcutaneously 15 minutes before the test. Haloperidol was dissolved in sterilized water using emulsifier Twin 80, it was administered intraperitoneally 60 minutes before the test. The compound 1.1(1) was dissolved in sterilized water, it was introduced subcutaneously 60 minutes before the test. Injection volume was 10 ml/kg. Solution of ascorbic acid prepared with sterilized water and Twin 80 were injected to control group of animals.
The test instrument consisted of a chamber made of transparent plexiglass (manufacturer—Columbia Instruments Company, USA) and placed on a platform the latter was lodged inside the sound insulating chamber. High frequency sound column transmitting acoustic stimulus was located 2 cm away from the platform. […] Inhibition of the startle in reply to prepulse-plus-pulse stimulus was calculated in percentage towards amplitude of startle in response to isolated pulse stimulus. […]

5-HT6 receptor [4] = molecular target: T1, 5-HT6 receptor; experiment: Competitive radioligand binding ([3H] Lysergic acid diethylamide) to membranes of HeLa cells expressing recombinant human 5-HT6 receptors
Method: Activity determination of serotonin 5-HT6 receptor antagonists of the general formula 1 in the setting of competitive binding to serotonin 5-HT6 receptors.
Screening of the disclosed compounds for their potential ability to interact with serotonin 5-HT6 receptors was carried out by method of radioligand binding. For this purpose membrane species were prepared from expressing recombinant human 5-HT6 receptors HeLa cells by means of their homogenization in glass homogenizer with subsequent separation of plasmatic membranes from cell nucli, mitochondria's and cell wreckages by differential centrifugation. Determination of tested compounds binding with 5-HT6 receptors was carried out according to the method described in [Monsma F J Jr, Shen Y, Ward R P, Hamblin M W and Sibley D R, Cloning and expression of a novel serotonin receptor with high affinity for tricyclic psychotropic drugs. Mol Pharmacol. 43:320-327, 1993]. […] After incubation the samples were filtered in vacuo on glass-microfiber filters G/F (Millipor, USA), filters were washed three times with cold solution of medium and radioactivity was measured by scintillation counter MicroBeta 340 (PerkinElmer, USA). […] Binding of tested compounds to the receptor was determined by their ability to displace the radioligand and expressed in percent of displacement. The percent of displacement was calculated according to the following equation:
[formula] wherein: TA—was overall radioactivity in the presence of radioligand only, CA—was radioactivity in the presence of radioligand and tested compound and NA—was radioactivity in the presence of radioligand and Serotonin (5 μM).

T1 sequence (P50406 whole entry): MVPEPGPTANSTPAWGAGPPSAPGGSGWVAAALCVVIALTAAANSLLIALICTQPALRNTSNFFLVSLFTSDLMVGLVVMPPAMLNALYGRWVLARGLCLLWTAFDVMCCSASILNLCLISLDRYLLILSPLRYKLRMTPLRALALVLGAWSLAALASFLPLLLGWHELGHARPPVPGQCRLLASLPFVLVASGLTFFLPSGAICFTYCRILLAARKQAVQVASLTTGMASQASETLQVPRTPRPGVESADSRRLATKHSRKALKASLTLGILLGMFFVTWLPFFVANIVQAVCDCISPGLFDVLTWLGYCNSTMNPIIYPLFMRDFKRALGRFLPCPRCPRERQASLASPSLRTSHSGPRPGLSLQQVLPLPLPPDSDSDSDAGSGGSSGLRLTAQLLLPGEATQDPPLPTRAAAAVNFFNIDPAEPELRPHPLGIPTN

Row | inhibition at 10 µM (5-HT6 receptor [1]) | SMILES | further results
1 | 77% | Cc1ccc(S(=O)(=O)c2c(Nc3ccccc3)nn3c(C)c(C)c(C)nc23)cc1 [1(1)] | –
2 | 90% | CNc1nn2c(-c3ccccc3)cc(C)nc2c1S(=O)(=O)c1ccccc1 [1(2)] | –
3 | 91% | CNc1nn2c(C)cc(-c3ccccc3)nc2c1S(=O)(=O)c1ccccc1 [1(3)] | –
4 | 97% | CNc1nn2c(C)cc(C)nc2c1S(=O)(=O)c1ccncc1 [1(4)] | –
5 | 95% | CNc1nn2c(C)cc(C)nc2c1S(=O)(=O)c1cccnc1 [1(5)] | –
6 | 98% | CNc1nn2c(C)cc(C)nc2c1S(=O)(=O)c1cccs1 [1(6)] | –
7 | 104% | CCNc1nn2c(C)cc(C)nc2c1S(=O)(=O)c1ccccc1 [1(7)] | –
8 | 91% | Cc1cc(C)n2nc(NCCN(C)C)c(S(=O)(=O)c3ccccc3)c2n1 [1(8)] | –
9 | 88% | Cc1cc(C)n2nc(N(C)CCN(C)C)c(S(=O)(=O)c3ccccc3)c2n1 [1(9)] | –
10 | 94% | Cc1cc(C)n2nc(NCCCN(C)C)c(S(=O)(=O)c3ccccc3)c2n1 [1(10)] | –
11 | 63% | Cc1cc(C)n2nc(N3CCN(C(=O)OC(C)(C)C)CC3)c(S(=O)(=O)c3ccccc3)c2n1 [1(11)] | –
12 | 76% | Cc1cc(C)n2nc(N3CCNCC3)c(S(=O)(=O)c3ccccc3)c2n1 [1(12)] | –
13 | 80% | Cc1cc(C)n2nc(N3CCN(C)CC3)c(S(=O)(=O)c3ccccc3)c2n1 [1(13)] | –
14 | 70% | Cc1ccc(Nc2nn3c(C)cc(C)nc3c2S(=O)(=O)c2ccc(C)cc2)cc1 [1(14)] | –
15 | 77% | CNc1nn2c(C)cc(C)nc2c1S(=O)(=O)c1ccccc1 [1.1(1), 2-methylamino-5,7-dimethyl-3-(phenylsulfonyl)pyrazolo[1,5-a]pyrimidine] | effect on appetite (food consumption) after food deprivation [2]: capable to prevent appetite rising in rats; effect on disturbance of prepulse inhibition of startle caused by Apomorphine [3]: prevented disturbance of prepulse inhibition of startle caused by Apomorphine; IC50 (5-HT6 receptor [4]; 1.5 nM [3H] Lysergic acid diethylamide, 120 min at 37° C., read-out: IC50 in the setting of competitive binding): 0.511 nM; Ki (5-HT6 receptor [4]; 1.5 nM [3H] Lysergic acid diethylamide, 120 min at 37° C., read-out: Ki in the setting of competitive binding): 0.237 nM; activity of serotonin 5-HT6 receptor antagonist (5-HT6 receptor [4]; quantity not specified, differs from Table 4): 4.61 nM; IC50 (5-HT6 receptor [1]): 5 nM
16 | 86% | Cc1cc(C)n2nc(N(C)C)c(S(=O)(=O)c3ccccc3)c2n1 [1.1(2), 2-dimethylamino-5,7-dimethyl-3-(phenylsulfonyl)pyrazolo[1,5-a]pyrimidine] | IC50 (5-HT6 receptor [1]): 1180 nM
17 | 99% | CNc1nn2c(C)cc(C)nc2c1S(=O)(=O)c1ccc(F)cc1 [1.1(3), 2-methylamino-5,7-dimethyl-3-(4-fluorophenylsulfonyl)pyrazolo[1,5-a]pyrimidine] | IC50 (5-HT6 receptor [1]): 6 nM
18 | 95% | Cc1cc(C)n2nc(N(C)C)c(S(=O)(=O)c3ccc(F)cc3)c2n1 [1.1(4), 2-dimethylamino-5,7-dimethyl-3-(4-fluorophenylsulfonyl)pyrazolo[1,5-a]pyrimidine] | –
19 | 97% | CNc1nn2c(C)cc(C)nc2c1S(=O)(=O)c1cccc(F)c1 [1.1(5), 2-methylamino-5,7-dimethyl-3-(3-fluorophenylsulfonyl)pyrazolo[1,5-a]pyrimidine] | IC50 (5-HT6 receptor [1]): 5 nM
20 | 97% | Cc1cc(C)n2nc(N(C)C)c(S(=O)(=O)c3cccc(F)c3)c2n1 [1.1(6), 2-dimethylamino-5,7-dimethyl-3-(3-fluorophenylsulfonyl)pyrazolo[1,5-a]pyrimidine] | –
21 | 100% | CNc1nn2c(C)cc(C)nc2c1S(=O)(=O)c1cccc(Cl)c1 [1.1(7), 2-methylamino-5,7-dimethyl-3-(3-chlorophenylsulfonyl)pyrazolo[1,5-a]pyrimidine] | IC50 (5-HT6 receptor [1]): 2 nM
22 | 96% | Cc1cc(C)n2nc(N(C)C)c(S(=O)(=O)c3cccc(Cl)c3)c2n1 [1.1(8), 2-dimethylamino-5,7-dimethyl-3-(3-chlorophenylsulfonyl)pyrazolo[1,5-a]pyrimidine] | –
23 | 97% | CNc1nn2c(C)cc(C)nc2c1S(=O)(=O)c1ccc(F)c(Cl)c1 [1.1(9)] | IC50 (5-HT6 receptor [1]): 4 nM
24 | – | O=C(CCCN1CCC(O)(c2ccc(Cl)cc2)CC1)c1ccc(F)cc1 [Haloperidol, reference compound] | effect on disturbance of prepulse inhibition of startle caused by Apomorphine [3]: prevented disturbance of prepulse inhibition of startle caused by Apomorphine
